Where a name gives a salt, the structure may show the parent alone. Read-outs that look alike come from different tables or passages of the source.
Key:
[1] = test system: hexobarbital-treated ddY Strain male mice; assay: Barbiturate potentiation (duration of loss of righting reflex due to hexobarbital); type: in vivo, mouse (ddY Strain); conditions: 0.5 h, read-out: Barbiturate potentiation (ratio with control groups)
Experimental: ddY Strain male mice (4 - 5 weeks old, body weight 23 - 28 g) in groups of 5 mice each were orally treated with 100 mg/kg of samples and 30 minutes after the oral administration the mice were intraperitoneally treated with 100 mg/kg of hexobarbital. Duration of loss of righting reflex due to hexobarbital was determined and barbiturate potentiation ratios with control groups were calculated. Imipramine, desipramine and diazepam were used as control drugs.

[2] = test system: Wistar-Imamichi strain rats; assay: Subacute toxicity (30 days; oral administration), rat; type: in vivo, rat (Wistar-Imamichi strain)
Excerpt: (§1) ddY Strain mice and Wistar-Imamichi strain rats were used to inspect acute toxicity and subacute toxicity (30 days; oral administration) of a compound of the formula [I].

[3] = test system: hexobarbital-treated ddY Strain male mice; assay: Barbiturate potentiation (duration of loss of righting reflex due to hexobarbital); type: in vivo, mouse (ddY Strain); conditions: Mus musculus, po, 0.5 h, read-out: Barbiturate potentiation (ratio with control groups)
Acute toxicity, mouse = type: in vivo; conditions: in vivo, po
Excerpt: as §1

ddY Strain mice = assay: Acute toxicity, mouse; type: in vivo; conditions: p.o.
Excerpt: as §1

Acute toxicity, rat = conditions: in vivo, po
Excerpt: as §1

[4] = mouse, 100 mg/kg oral, 30 minutes before 100 mg/kg i.p. hexobarbital, loss of righting reflex duration
[5] = 30 days oral, at a dose of 50 mg/kg

Structure (SMILES)	response vs control in vivo at 100 mg/kg [1, 4] [%]	other results
O=C1c2ccccc2C(=O)N1CCCn1nc(-c2ccccc2)c2cc(Cl)ccc21 [Example 25, 1-phthalimidopropyl-3-phenyl-5-chloroindazole]	110	
Cc1ccc2c(c1)c(-c1ccccc1)nn2CCN(C)C [Example 3, 1-dimethylaminoethyl-3-phenyl-5-methylindazole hydrochloride]	150	
CN(C)CCCN1c2ccccc2CCc2ccccc21 [imipramine]		response vs control in vivo at 100 mg/kg ([1]; Mus musculus, po): 130%; Subacute toxicity: blood urine nitrogen [2, 5]: reduced; Subacute toxicity: fatality [2, 5]: not fatal; Subacute toxicity: hemoglobin [2, 5]: reduced
CNCCCN1c2ccccc2CCc2ccccc21 [desipramine, reference compound]		response vs control in vivo at 100 mg/kg ([1]; Mus musculus, po): 150%
CNCCCn1nc(-c2ccccc2)c2cc(C)ccc21 [Example 29, 1-N-monomethylaminopropyl-3-phenyl-5-methylindazole hydrochloride]	170	
Cc1ccc2c(c1)c(-c1ccccc1)nn2CCCN1CCOCC1 [Example 15, 1-morpholinopropyl-3-phenyl-5-methylindazole hydrochloride]	140	
CN(C)CCn1nc(-c2ccccc2)c2cc(Cl)ccc21 [Example 2, 1-dimethylaminoethyl-3-phenyl-5-chloroindazole hydrochloride]	150	
Cc1ccc2c(c1)c(-c1ccccc1)nn2CCCN1CCN(C)CC1 [Example 17, 1-N-methylpiperazinopropyl-3-phenyl-5-methylindazole hydrochloride]	100	
CN(C)CCn1nc(-c2ccccc2)c2ccccc21 [Example 1, 1-dimethylaminoethyl-3-phenylindazole hydrochloride]	300	
c1ccc(-c2nn(CCCN3CCCCC3)c3ccccc23)cc1 [Example 11, 1-piperidinopropyl-3-phenylindazole hydrochloride]	130	
CCN(CC)CCn1nc(-c2ccccc2)c2cc(Cl)ccc21 [Example 4, 1-diethylaminoethyl-3-phenyl-5-chloroindazole hydrochloride]	120	
Cc1ccc2c(c1)c(-c1ccccc1)nn2CN1CCCC1 [Example 20, 1-pyrrolidinomethyl-3-phenyl-5-methylindazole hydrochloride]	160	
CN1C(=O)CN=C(c2ccccc2)c2cc(Cl)ccc21 [diazepam]		response vs control in vivo at 5 mg/kg [3]: 230%
CN(C)CCCn1nc(-c2ccccc2)c2ccccc21 [Example 7, 1-dimethylaminopropyl-3-phenylindazole hydrochloride]	190	
Cc1ccc2c(c1)c(-c1ccccc1)nn2CCCN(C)C [Example 10, 1-dimethylaminopropyl-3-phenyl-5-methylindazole]	100	LD50 (Acute toxicity, mouse): 580 mg/kg; LD50 (ddY Strain mice): 660 mg/kg; LD50 (Acute toxicity, rat): 3000 to 5000 mg/kg; Subacute toxicity: fatality ([2]; 30 days oral, at a dose of 100 mg/kg): not fatal; Subacute toxicity: symptoms ([2]; in vivo, po, 100 mg/kg): no abnormal symptom
CCN(CC)CCn1nc(-c2ccccc2)c2ccccc21 [Example 6, 1-diethylaminoethyl-3-phenylindazole hydrochloride]	290	
Clc1ccc2c(c1)c(-c1ccccc1)nn2CN1CCOCC1 [Example 19, 1-morpholinomethyl-3-phenyl-5-chloroindazole]	120	
Cc1ccc2c(c1)c(-c1ccccc1)nn2CCCN1CCCCC1 [Example 12, 1-piperidinopropyl-3-phenyl-5-methylindazole hydrochloride]	100	
CN(C)CCCn1nc(-c2ccccc2)c2cc(Cl)ccc21 [Example 8, 1-dimethylaminopropyl-3-phenyl-5-chloroindazole hydrochloride]	130	
Cc1ccc2c(c1)c(-c1ccccc1)nn2CCCN [Example 34, 1-aminopropyl-3-phenyl-5-methylindazole]	250	
Clc1ccc2c(c1)c(-c1ccccc1)nn2CCN1CCOCC1 [Example 14, 1-morpholinoethyl-3-phenyl-5-chloroindazole hydrochloride]	170	
c1ccc(-c2nn(CN3CCOCC3)c3ccccc23)cc1 [Example 23, 1-morpholinomethyl-3-phenylindazole]	130	
